Laboratory results: US7625841B2, “Substituted thiene-3-ylsulphonylamino(thio)carbonyltriazolin(ethi)ones” (Bayer CropScience AG, priority 2001, dated 2009)

How the values were obtained:
Type in all cases: in vivo
weeds [1] = assay: Pre-emergence test, summary for weeds
Experimental: (§1) • Solvent: 5 parts by weight of acetone • Emulsifier: 1 part by weight of alkylaryl polyglycol ether
(§2) To produce a suitable preparation of active compound, 1 part by weight of active compound is mixed with the stated amount of solvent, the stated amount of emulsifier is added and the concetrate is diluted with water to the desired concentration.
(§3) Seeds of the test plants are sown in normal soil. After 24 hours, the soil is sprayed with the preparation of active compound such that the particular amount of active compound desired is applied per unit area. The concentration of active compound in the spray liquor is chosen such that the particular amount of active compound desired is applied in 1000 litres of water per hectare.
(§4) After three weeks, the degree of damage to the plants is rated in % damage in comparison to the development of the untreated control. The figures denote: • 0%=no effect (like untreated control) • 100%=total destruction

Setaria [2] = assay: Pre-emergence test/greenhouse; conditions: greenhouse, application rate 15 gai/ha, rated after three weeks, 0%=no effect, 100%=total destruction
Experimental: as §1, §2, §3, §4

Chenopodium = assay: Pre-emergence test/greenhouse; conditions: greenhouse, application rate 15 gai/ha, rated after three weeks, 0%=no effect, 100%=total destruction
Experimental: as §1, §2, §3, §4

Amaranthus = assay: Pre-emergence test/greenhouse; conditions: greenhouse, application rate 15 gai/ha, rated after three weeks, 0%=no effect, 100%=total destruction
Experimental: as §1, §2, §3, §4

Alopecurus [3] = assay: Pre-emergence test/greenhouse; conditions: greenhouse, application rate 15 gai/ha, rated after three weeks, 0%=no effect, 100%=total destruction
Experimental: as §1, §2, §3, §4

Solanum = assay: Pre-emergence test/greenhouse; conditions: greenhouse, application rate 15 gai/ha, rated after three weeks, 0%=no effect, 100%=total destruction
Experimental: as §1, §2, §3, §4

maize = assay: Pre-emergence test/greenhouse; conditions: greenhouse, application rate 15 gai/ha, rated after three weeks, 0%=no effect, 100%=total destruction
Experimental: as §1, §2, §3, §4

wheat = assay: Pre-emergence test/greenhouse; conditions: greenhouse, application rate 15 gai/ha, rated after three weeks, 0%=no effect, 100%=total destruction
Experimental: as §1, §2, §3, §4

Stellaria = assay: Pre-emergence test/greenhouse; conditions: greenhouse, application rate 15 gai/ha, rated after three weeks, 0%=no effect, 100%=total destruction
Experimental: as §1, §2, §3, §4

[4] = tested on: crop plants, such as, for example, maize, soyabean and wheat; assay: Pre-emergence test, summary for crop plants
Experimental: as §1, §2, §3, §4

Echinochloa = assay: Post-emergence test/greenhouse; conditions: greenhouse, application rate 15 gai/ha, rated after three weeks, 0%=no effect, 100%=total destruction
Experimental: as §1
(§5) To produce a suitable preparation of active compound, 1 part by weight of active compound is mixed with the stated amount of solvent, the stated amount of emulsifier is added and the concentrate is diluted with water to the desired concentration.
(§6) Test plants of a height of 5-15 cm are sprayed with the preparation of active compound such that the particular amounts of active compound desired are applied per unit area. The concentration of the spray liquor is chosen such that the particular amounts of active compound desired are applied in 1000 l of water/ha.
(§7) After three weeks, the degree of damage to the plants is rated in % damage in comparison to the development of the untreated control.
(§8) The figures denote: • 0%=no effect (like untreated control) • 100%=total destruction

Setaria [5] = assay: Post-emergence test/greenhouse; conditions: greenhouse, application rate 15 gai/ha, rated after three weeks, 0%=no effect, 100%=total destruction
Experimental: as §1, §5, §6, §7, §8

Digitaria [6] = assay: Post-emergence test/greenhouse; conditions: greenhouse, application rate 15 gai/ha, rated after three weeks, 0%=no effect, 100%=total destruction
Experimental: as §1, §5, §6, §7, §8

Lolium [7] = assay: Post-emergence test/greenhouse; conditions: greenhouse, application rate 15 gai/ha, rated after three weeks, 0%=no effect, 100%=total destruction
Experimental: as §1, §5, §6, §7, §8

Bromus [8] = assay: Post-emergence test/greenhouse; conditions: greenhouse, application rate 15 gai/ha, rated after three weeks, 0%=no effect, 100%=total destruction
Experimental: as §1, §5, §6, §7, §8

Avena fatua [9] = assay: Post-emergence test/greenhouse; conditions: greenhouse, application rate 15 gai/ha, rated after three weeks, 0%=no effect, 100%=total destruction
Experimental: as §1, §5, §6, §7, §8

[10] = tested on: crop plants such as, for example, maize, oilseed rape and wheat; assay: Post-emergence test, summary for crop plants
Experimental: as §1, §5, §6, §7, §8

Digitaria [11] = assay: Pre-emergence test/greenhouse; conditions: greenhouse, application rate 15 gai/ha, rated after three weeks, 0%=no effect, 100%=total destruction
Experimental: as §1, §2, §3, §4

Lolium [12] = assay: Pre-emergence test/greenhouse; conditions: greenhouse, application rate 15 gai/ha, rated after three weeks, 0%=no effect, 100%=total destruction
Experimental: as §1, §2, §3, §4

weeds [13] = assay: Post-emergence test, summary for weeds
Experimental: as §1, §5, §6, §7, §8

soybeans = assay: Pre-emergence test/greenhouse; conditions: greenhouse, application rate 15 gai/ha, rated after three weeks, 0%=no effect, 100%=total destruction
Experimental: as §1, §2, §3, §4

Alopecurus [14] = assay: Post-emergence test/greenhouse; conditions: greenhouse, application rate 15 gai/ha, rated after three weeks, 0%=no effect, 100%=total destruction
Experimental: as §1, §5, §6, §7, §8

Bromus [15] = assay: Pre-emergence test/greenhouse; conditions: greenhouse, application rate 15 gai/ha, rated after three weeks, 0%=no effect, 100%=total destruction
Experimental: as §1, §2, §3, §4

Xanthium = assay: Pre-emergence test/greenhouse; conditions: greenhouse, application rate 15 gai/ha, rated after three weeks, 0%=no effect, 100%=total destruction
Experimental: as §1, §2, §3, §4

Polygonum = assay: Pre-emergence test/greenhouse; conditions: greenhouse, application rate 15 gai/ha, rated after three weeks, 0%=no effect, 100%=total destruction
Experimental: as §1, §2, §3, §4

Matricaria = assay: Pre-emergence test/greenhouse; conditions: greenhouse, application rate 15 gai/ha, rated after three weeks, 0%=no effect, 100%=total destruction
Experimental: as §1, §2, §3, §4

Avena fatua [16] = assay: Pre-emergence test/greenhouse; conditions: greenhouse, application rate 15 gai/ha, rated after three weeks, 0%=no effect, 100%=total destruction
Experimental: as §1, §2, §3, §4

SMILES	activity against weeds compared with the known compounds (A) to (G) (weeds [1])	degree of damage to the plants, Setaria (Setaria [2])	degree of damage to the plants, Amaranthus (Amaranthus)	degree of damage to the plants, Alopecurus (Alopecurus [3])	degree of damage to the plants, Solanum (Solanum)	degree of damage to the plants, maize (maize)	degree of damage to the plants, wheat (wheat)	degree of damage to the plants, Stellaria (Stellaria)	tolerance by crop plants [4]	degree of damage to the plants, Echinochloa (Echinochloa)	degree of damage to the plants, Setaria (Setaria [5])	degree of damage to the plants, Digitaria (Digitaria [6])	degree of damage to the plants, Lolium (Lolium [7])	degree of damage to the plants, Bromus (Bromus [8])	degree of damage to the plants, Avena fatua (Avena fatua [9])	compatibility with crop plants compared with the known compounds (A) and (B) [10]	degree of damage to the plants, Lolium (Lolium [12])	activity against weeds compared with the known compounds (A) and (B) (weeds [13])	degree of damage to the plants, Polygonum (Polygonum)	degree of damage to the plants, Matricaria (Matricaria)	further results
COC(=O)c1csc(C)c1S(=O)(=O)NC(=O)n1nc(OCC(F)(F)F)n(C)c1=O [Example 41]	considerably stronger activity against weeds	95%	100%	100%	100%	0%	0%	100%	tolerated well by crop plants	–	–	–	–	–	–	–	–	–	–	–	degree of damage to the plants, Chenopodium (Chenopodium): 100%
CCOn1c(CC)nn(C(=O)NS(=O)(=O)c2c(C(=O)OC)csc2C)c1=O [Example 39]	considerably stronger activity against weeds	100%	100%	–	95%	–	0%	100%	tolerated well by crop plants	100%	95%	95%	95%	95%	90%	substantially better compatibility with crop plants	95%	considerably stronger activity against weeds	–	–	degree of damage to the plants, Digitaria (Digitaria [11]): 100%
CCOc1nn(C(=O)NS(=O)(=O)c2c(C(=O)OC)csc2C)c(=O)n1CC [Example 38]	considerably stronger activity against weeds	95%	100%	–	100%	0%	–	100%	tolerated well by crop plants	–	–	–	–	–	–	–	80%	–	–	–	degree of damage to the plants, soybeans (soybeans): 0%; degree of damage to the plants, Chenopodium (Chenopodium): 95%
CCCc1nn(C(=O)NS(=O)(=O)c2c(C(=O)OC)csc2C)c(=O)n1C [Example 15]	considerably stronger activity against weeds	–	–	100%	95%	0%	0%	100%	tolerated well by crop plants	90%	90%	100%	80%	80%	90%	substantially better compatibility with crop plants	95%	considerably stronger activity against weeds	90%	–	degree of damage to the plants, Alopecurus (Alopecurus [14]): 95%; degree of damage to the plants, Bromus (Bromus [15]): 90%; degree of damage to the plants, Xanthium (Xanthium): 95%
COC(=O)c1csc(C)c1S(=O)(=O)NC(=O)n1nc(C)n(C2CC2)c1=O [Example 46]	considerably stronger activity against weeds	–	–	95%	–	0%	50%	100%	tolerated well by crop plants	–	–	90%	95%	–	80%	substantially better compatibility with crop plants	90%	considerably stronger activity against weeds	–	100%	degree of damage to the plants, Alopecurus (Alopecurus [14]): 80%; degree of damage to the plants, soybeans (soybeans): 0%
COCc1nn(C(=O)NS(=O)(=O)c2c(C(=O)OC)csc2C)c(=O)n1C1CC1 [Example 45]	considerably stronger activity against weeds	100%	100%	–	–	–	–	100%	tolerated well by crop plants	100%	90%	100%	95%	90%	90%	substantially better compatibility with crop plants	100%	considerably stronger activity against weeds	95%	100%	degree of damage to the plants, Avena fatua (Avena fatua [16]): 95%
COC(=O)c1csc(C)c1S(=O)(=O)NC(=O)n1nc(OCC(F)(F)F)n(C2CC2)c1=O [Example 43]	considerably stronger activity against weeds	95%	100%	–	–	–	–	100%	tolerated well by crop plants	–	–	–	–	–	–	–	95%	–	100%	100%	–
